The source of these data is US12139520B2 (priority 2020, dated 2024).

Molecules are shown by their SMILES. Bridge positions count the residues as written; N and C are the ends. Square brackets hold non-standard residues; d marks the D form. Peptide text beside a SMILES is read from it. Hyp = O=C(O)[C@@H]1C[C@@H](O)CN1; Cit = NC(=O)NCCC[C@H](N)C(=O)O Where only a bound is given, the exact number is not on record here.

As a reminder, the EC50 is the concentration that produces a half-maximal response.

One series has as its target T1, hAMY3 receptor (Homo sapiens, UniProt O60896+P30988).
T1 sequence (P30988 25-474): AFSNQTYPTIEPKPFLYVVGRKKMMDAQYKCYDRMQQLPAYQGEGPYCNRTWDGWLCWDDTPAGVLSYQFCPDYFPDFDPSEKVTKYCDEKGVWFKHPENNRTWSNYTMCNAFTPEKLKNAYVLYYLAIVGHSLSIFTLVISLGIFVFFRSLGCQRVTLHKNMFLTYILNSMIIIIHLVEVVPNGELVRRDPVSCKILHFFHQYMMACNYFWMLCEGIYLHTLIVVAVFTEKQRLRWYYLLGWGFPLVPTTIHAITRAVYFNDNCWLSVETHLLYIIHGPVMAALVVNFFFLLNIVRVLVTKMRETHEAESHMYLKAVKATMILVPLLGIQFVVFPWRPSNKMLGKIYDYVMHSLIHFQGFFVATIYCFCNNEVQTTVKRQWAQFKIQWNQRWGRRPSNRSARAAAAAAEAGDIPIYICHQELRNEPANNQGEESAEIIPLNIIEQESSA
T1 sequence (O60896 24-148 partner): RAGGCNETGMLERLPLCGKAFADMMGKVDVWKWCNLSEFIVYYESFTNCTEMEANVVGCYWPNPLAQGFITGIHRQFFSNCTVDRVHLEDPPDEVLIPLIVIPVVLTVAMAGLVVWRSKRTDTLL
Put plainly: cAMP assay for in vitro receptor activation, hAMY3-R. It counts as cell-based. As to conditions: cAMP assay, hAMY3 receptor; read-out: hAMY3R EC50. Summed up: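 Graded compound concentrations were applied for 30 min at room temperature to stably hAMY3-expressing cells in DPBS, 0.05% casein, 0.5 mM IBMX; cAMP detected by TR-FRET.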

Series [1] is described as follows: Physical stability of peptide analogues (Thioflavin T fibrillation). It counts as physicochemical. As to conditions: maximum ThT signal normalized between hAMY maximum and buffer background; 40° C., shaking, four days; pH 7 per table title. Summed up:
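Peptides in 50 mM sodium acetate pH 4 or 50 mM sodium phosphate pH 7 were preincubated 1 h, mixed with 4 μM ThT, held at 40° C with 700 rpm shaking before each read. Fluorescence (ex 450/em 480 nm) every 10 min for four days; LOESS-smoothed maximum signal normalized in percent between hAMY and buffer.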

Another series concerns the target hAM1 receptor (Homo sapiens, UniProt O60895+Q16602). Put plainly: cAMP assay for in vitro receptor activation, hAM1-R. As to conditions: cAMP assay, hAM1 receptor; read-out: hAM1R EC50. It counts as cell-based. Summed up: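 Stable hAM1 cells (monoclonal) plated 8000/well; buffer DPBS, 0.05% casein, 0.5 mM IBMX; cAMP read-out.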

hAM1 receptor, sequence (Q16602 23-461): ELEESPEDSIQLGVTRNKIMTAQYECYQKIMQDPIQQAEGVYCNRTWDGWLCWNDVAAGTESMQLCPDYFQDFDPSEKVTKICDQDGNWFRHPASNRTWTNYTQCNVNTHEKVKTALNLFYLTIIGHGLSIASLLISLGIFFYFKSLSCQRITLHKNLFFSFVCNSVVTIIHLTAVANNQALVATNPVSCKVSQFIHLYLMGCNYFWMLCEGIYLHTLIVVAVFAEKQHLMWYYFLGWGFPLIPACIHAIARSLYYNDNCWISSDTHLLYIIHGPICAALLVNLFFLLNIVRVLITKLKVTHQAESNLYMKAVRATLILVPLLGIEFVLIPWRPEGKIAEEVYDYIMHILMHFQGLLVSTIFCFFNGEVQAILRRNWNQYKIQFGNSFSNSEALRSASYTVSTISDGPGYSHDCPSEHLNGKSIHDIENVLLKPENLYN
hAM1 receptor, sequence (O60895 43-175 partner): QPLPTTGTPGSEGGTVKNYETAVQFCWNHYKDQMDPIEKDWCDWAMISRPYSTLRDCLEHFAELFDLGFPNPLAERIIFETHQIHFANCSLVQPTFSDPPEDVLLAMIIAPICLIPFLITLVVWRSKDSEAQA

For the molecule `CC[C@H](C)[C@H](NC(=O)[C@H](CCC(N)=O)NC(=O)[C@H](Cc1c[nH]cn1)NC(=O)[C@H](C)NC(=O)[C@H](CC(C)C)NC(=O)[C@H](CCCNC(=N)N)NC(=O)[C@H](CCC(N)=O)NC(=O)[C@@H](NC(=O)[C@@H](NC(=O)[C@@H]1CSSC[C@H](NC(=O)[C@@H](N)CCCCN)C(=O)N[C@@H](CC(N)=O)C(=O)N[C@@H]([C@@H](C)O)C(=O)N[C@@H](C)C(=O)N[C@@H]([C@@H](C)O)C(=O)N1)[C@@H](C)O)C(C)C)C(=O)N[C@@H](C)C(=O)N[C@@H](CCC(N)=O)C(=O)N[C@@H](Cc1ccccc1)C(=O)N[C@H](C(=O)N[C@@H](CC(=O)O)C(=O)N[C@@H](CCCCN)C(=O)N[C@@H](CC(=O)O)C(=O)N[C@@H](CCCCN)C(=O)N[C@@H](CC(=O)O)C(=O)N[C@@H](CC(N)=O)C(=O)N[C@H](C(=O)N[C@@H](C)C(=O)N1CCC[C@H]1C(=O)N1CCC[C@H]1C(=O)N[C@H](C(=O)N[C@@H](CC(N)=O)C(=O)N[C@H](C(=O)NCC(=O)N[C@@H](CO)C(=O)N[C@@H](CC(N)=O)C(=O)NCC(=O)N1C[C@H](O)C[C@H]1C(N)=O)C(C)C)[C@@H](C)O)C(C)C)[C@@H](C)O` [compound 14] (H-KCNTATCTVQRLAHQIAQFTDKDKDNVAPPTNVGSNG[Hyp]-NH2; disulfide 2-7; N-terminus assumed), the EC50 at hAMY3 receptor is 0.007 nM; on hAM1 receptor, greater than 5000 nM. For the same molecule, in series [1], the “Max ThT signal (%)” value was 3.100%.

Regarding `CC[C@H](C)[C@H](NC(=O)[C@H](CCC(N)=O)NC(=O)[C@H](Cc1c[nH]cn1)NC(=O)[C@H](C)NC(=O)[C@H](CC(C)C)NC(=O)[C@H](Cc1c[nH]c2ccccc12)NC(=O)[C@H](CCC(N)=O)NC(=O)[C@@H](NC(=O)[C@@H](NC(=O)[C@@H]1CSSC[C@H](NC(=O)CN)C(=O)N[C@@H](CCCNC(=N)N)C(=O)N[C@@H]([C@@H](C)O)C(=O)NCC(=O)N[C@@H]([C@@H](C)O)C(=O)N1)[C@@H](C)O)C(C)C)C(=O)N[C@@H](Cc1ccc(O)cc1)C(=O)N[C@@H](CCC(N)=O)C(=O)N[C@@H](Cc1ccccc1)C(=O)N[C@H](C(=O)N[C@@H](CC(=O)O)C(=O)N[C@@H](CCCCN)C(=O)N[C@@H](CC(=O)O)C(=O)N[C@@H](CCCCN)C(=O)N[C@@H](CC(=O)O)C(=O)N[C@@H](CC(N)=O)C(=O)N[C@H](C(=O)N[C@@H](C)C(=O)N1CCC[C@H]1C(=O)N[C@@H](CCCNC(=N)N)C(=O)N[C@H](C(=O)N[C@@H](CC(N)=O)C(=O)N[C@H](C(=O)NCC(=O)N1CCC[C@H]1C(=O)N[C@@H](CCC(N)=O)C(=O)NCC(=O)N[C@@H](Cc1ccc(O)cc1)C(N)=O)C(C)C)[C@@H](C)O)C(C)C)[C@@H](C)O` [compound 335] (H-GCRTGTCTVQWLAHQIYQFTDKDKDNVAPRTNVGPQGY-NH2; disulfide 2-7; N-terminus assumed), the EC50 on hAMY3 receptor is 0.015 nM; at hAM1 receptor, greater than 5000 nM. Also, the “Max ThT signal (%)” value in series [1] is recorded as 1.600%.

With `CC[C@H](C)[C@H](NC(=O)[C@H](CCC(N)=O)NC(=O)[C@H](Cc1c[nH]cn1)NC(=O)[C@H](C)NC(=O)[C@H](CC(C)C)NC(=O)[C@H](CCCNC(N)=O)NC(=O)[C@H](CCC(N)=O)NC(=O)[C@@H](NC(=O)[C@@H](NC(=O)[C@@H]1CSSC[C@H](NC(=O)CN)C(=O)N[C@@H](CCCNC(=N)N)C(=O)N[C@@H](Cc2ccccc2)C(=O)NCC(=O)N[C@@H]([C@@H](C)O)C(=O)N1)[C@@H](C)O)C(C)C)C(=O)N[C@@H](Cc1ccc(O)cc1)C(=O)N[C@@H](CCC(N)=O)C(=O)N[C@@H](Cc1ccccc1)C(=O)N[C@H](C(=O)N[C@@H](CC(=O)O)C(=O)N[C@@H](CCCCN)C(=O)N[C@@H](CC(=O)O)C(=O)N[C@@H](CCCCN)C(=O)N[C@@H](CC(=O)O)C(=O)N[C@@H](CC(N)=O)C(=O)N[C@H](C(=O)N[C@@H](C)C(=O)N1CCC[C@H]1C(=O)N[C@@H](CCCNC(=N)N)C(=O)N[C@H](C(=O)N[C@@H](CCCCN)C(=O)N[C@H](C(=O)N[C@@H](CO)C(=O)N1CCC[C@H]1C(=O)N[C@@H](CC(N)=O)C(=O)NCC(=O)N1C[C@H](O)C[C@H]1C(N)=O)[C@@H](C)CC)[C@@H](C)O)C(C)C)[C@@H](C)O` [compound 275] (H-GCRFGTCTVQ[Cit]LAHQIYQFTDKDKDNVAPRTKISPNG[Hyp]-NH2; disulfide 2-7; N-terminus assumed), the EC50 is 0.02 nM at hAMY3 receptor and greater than 5000 nM on hAM1 receptor. In addition, the “Max ThT signal (%)” value in series [1] stood at 19.850%.

With `CC[C@H](C)[C@H](NC(=O)[C@H](CCC(N)=O)NC(=O)[C@H](C)NC(=O)[C@H](C)NC(=O)[C@H](CC(C)C)NC(=O)[C@H](CCCNC(=N)N)NC(=O)[C@H](CCC(N)=O)NC(=O)[C@@H](NC(=O)[C@@H](NC(=O)[C@@H]1CSSC[C@H](NC(=O)[C@@H](N)CCCCN)C(=O)N[C@@H](CC(N)=O)C(=O)N[C@@H]([C@@H](C)O)C(=O)N[C@@H](C)C(=O)N[C@@H]([C@@H](C)O)C(=O)N1)[C@@H](C)O)C(C)C)C(=O)N[C@@H](Cc1ccc(O)cc1)C(=O)N[C@@H](CCC(N)=O)C(=O)N[C@@H](Cc1ccccc1)C(=O)N[C@H](C(=O)N[C@@H](CC(=O)O)C(=O)N[C@@H](CCCCN)C(=O)N[C@@H](CC(=O)O)C(=O)N[C@@H](CCCCN)C(=O)N[C@@H](CC(=O)O)C(=O)N[C@@H](CC(N)=O)C(=O)N[C@H](C(=O)N[C@@H](C)C(=O)N1CCC[C@H]1C(=O)N1CCC[C@H]1C(=O)N[C@H](C(=O)N[C@@H](CC(N)=O)C(=O)N[C@H](C(=O)NCC(=O)N[C@@H](CO)C(=O)N[C@@H](CC(N)=O)C(=O)NCC(=O)N1C[C@H](O)C[C@H]1C(N)=O)C(C)C)[C@@H](C)O)C(C)C)[C@@H](C)O` [compound 7] (H-KCNTATCTVQRLAAQIYQFTDKDKDNVAPPTNVGSNG[Hyp]-NH2; disulfide 2-7; N-terminus assumed), the results for the half-maximal effective concentration (EC50) at hAMY3 receptor and at hAM1 receptor were 0.006 nM and greater than 5000 nM, respectively. Further, the “Max ThT signal (%)” value in series [1] was determined as 2.800%.

Take `CC[C@H](C)[C@H](NC(=O)[C@H](CCC(N)=O)NC(=O)[C@H](Cc1c[nH]cn1)NC(=O)[C@H](C)NC(=O)[C@H](CC(C)C)NC(=O)[C@H](CCCNC(=N)N)NC(=O)[C@H](CCC(N)=O)NC(=O)[C@@H](NC(=O)[C@@H](NC(=O)[C@@H]1CSSC[C@H](NC(=O)[C@@H](N)CCCCN)C(=O)N[C@@H](CC(N)=O)C(=O)N[C@@H]([C@@H](C)O)C(=O)N[C@@H](C)C(=O)N[C@@H]([C@@H](C)O)C(=O)N1)[C@@H](C)O)C(C)C)C(=O)N[C@@H](Cc1ccc(O)cc1)C(=O)N[C@@H](CCC(N)=O)C(=O)N[C@@H](Cc1ccccc1)C(=O)N[C@H](C(=O)N[C@@H](CC(=O)O)C(=O)N[C@@H](CCCCN)C(=O)N[C@@H](CC(=O)O)C(=O)N[C@@H](CCCCN)C(=O)N[C@@H](CC(=O)O)C(=O)N[C@@H](C)C(=O)N[C@H](C(=O)N[C@@H](C)C(=O)N1CCC[C@H]1C(=O)N1CCC[C@H]1C(=O)N[C@H](C(=O)N[C@@H](CC(N)=O)C(=O)N[C@H](C(=O)NCC(=O)N[C@@H](CO)C(=O)N[C@@H](CC(N)=O)C(=O)NCC(=O)N1C[C@H](O)C[C@H]1C(N)=O)C(C)C)[C@@H](C)O)C(C)C)[C@@H](C)O` [compound 52] (H-KCNTATCTVQRLAHQIYQFTDKDKDAVAPPTNVGSNG[Hyp]-NH2; disulfide 2-7; N-terminus assumed): the values for the EC50 at hAMY3 receptor and on hAM1 receptor were 0.011 nM and greater than 5000 nM, respectively. The “Max ThT signal (%)” value in series [1] is recorded as 7.600%.

Consider `CC[C@H](C)[C@H](NC(=O)[C@H](CCC(N)=O)NC(=O)[C@H](CCC(=O)O)NC(=O)[C@H](C)NC(=O)[C@H](CC(C)C)NC(=O)[C@H](CCCNC(=N)N)NC(=O)[C@H](C)NC(=O)[C@@H](NC(=O)[C@@H](NC(=O)[C@@H]1CSSC[C@H](NC(=O)[C@@H](N)CCCNC(=N)N)C(=O)N[C@@H](CCC(N)=O)C(=O)N[C@@H]([C@@H](C)O)C(=O)N[C@@H](CO)C(=O)N[C@@H]([C@@H](C)O)C(=O)N1)[C@@H](C)O)C(C)C)C(=O)N[C@@H](C)C(=O)N[C@@H](CCC(N)=O)C(=O)N[C@@H](Cc1ccc(O)cc1)C(=O)N[C@H](C(=O)N[C@@H](CC(=O)O)C(=O)N[C@@H](CCCCN)C(=O)N[C@@H](CC(=O)O)C(=O)N[C@@H](CCCCN)C(=O)N[C@@H](CC(=O)O)C(=O)N[C@@H](CCC(N)=O)C(=O)N[C@H](C(=O)N[C@@H](C)C(=O)N1CCC[C@H]1C(=O)N1CCC[C@H]1C(=O)N[C@H](C(=O)N[C@@H](CC(N)=O)C(=O)N[C@H](C(=O)NCC(=O)N[C@@H](CO)C(=O)N[C@@H](CC(N)=O)C(=O)N[C@@H](CO)C(=O)N1C[C@H](O)C[C@H]1C(N)=O)C(C)C)[C@@H](C)O)C(C)C)[C@@H](C)O` [compound 32] (H-RCQTSTCTVARLAEQIAQYTDKDKDQVAPPTNVGSNS[Hyp]-NH2; disulfide 2-7; N-terminus assumed), for which the EC50 at hAMY3 receptor is 0.008 nM; on hAM1 receptor, greater than 5000 nM. The “Max ThT signal (%)” value in series [1] was determined as 5.300%.
